Measured values as given in article PMC11211491, “Design of a covalent protein-protein interaction inhibitor of SRPKs to suppress angiogenesis and invasion of cancer cells” (Communications Chemistry, 2024).
Square brackets hold non-standard residues; d marks the D form. Peptide text beside a SMILES is read from it. * marks the point of attachment. Benzoyl(4-SO2F) = O=C(c1ccc(S(=O)(=O)F)cc1)*; Dap = NC[C@H](N)C(=O)O

What was measured:
A549 cells = test: Cellular uptake and endo/lysosomal escape (confocal microscopy); format: cell-based, human
Procedure: A549 cells (20 × 10^4 per well) were seeded into confocal dishes (SPL Life Sciences) and incubated for adhesion overnight at 37 °C in 5% CO2. 6-FAM-labeled C-DSB or control peptide was diluted to Opti-MEM medium (Gibco) and added to the cells for 24-h incubation. C-DBS was washed with PBS containing 20 U/mL heparin (Sigma-Aldrich) and stained with 40 μM Hoechst 33342 (Life Technologies) and 5 μg/mL Wheat Germ Agglutinin Alexa Fluor 647 Conjugate (Life Technologies) for 20 min. After removing excess dye, cell images were captured by the Leica TCS SP8 Confocal Microscope System. To detect the endo/lysosomal escape of C-DBS, 50 nM Lysotracker Red (Life Technologies) was used to stain the endo/lysosomes. Fluorescence intensity profiles of the region of interest (ROI) were analyzed using ImageJ software.

A549 = test: Cell viability assay (MTT); format: cell-based, human; conditions: A549, up to 100 μM, 24 h
Procedure: (§1) Cells (6 × 10^3 per well) were seeded into a 96-well plate. After overnight incubation, cells were treated with different concentrations of C-DBS for 24 h. The viability of the cells was determined using 3-(4,5-dimethylthiazol-2-yl)-2,5-diphenyltetrazolium bromide (MTT) (Roche). Absorption at 570 nm was measured using a microplate reader (BMG, CLARIOstar) according to the manufacturer’s instructions.

HEK-293 = test: Cell viability assay (MTT); format: cell-based, human; conditions: HEK-293, up to 100 μM, 24 h
Procedure: as §1

HeLa = test: Cell viability assay (MTT); format: cell-based, human; conditions: up to 100 μM, 24 h
Procedure: as §1

MDA-MB-231 = test: Cell viability assay (MTT); format: cell-based, human; conditions: MDA-MB-231, up to 100 μM, 24 h
Procedure: as §1

SRPK1ΔNS3 = conditions: quoted for comparison, earlier work on DBS1; read-out: Kd of DBS1 for SRPK1; cited from earlier work
Text: Because DBS1 targets the docking groove of SRPK, we tested the specificity of C-DBS toward the same binding site. We performed fluorescence polarization (FP) assay to examine the direct noncovalent interaction between C-DBS and SRPK1ΔNS3, as well as the docking groove mutant SRPK1ΔNS3_DM that contains alanine substitutions at four docking groove residues—D548, D564, E571, and K615—that are essential for the binding and phosphorylation of the substrate (Fig. 2a)[11],[12],[36].

Row | Compound | cellular uptake (A549 cells; A549, 10 μM FAM-labeled peptide, 24 h, Opti-MEM, confocal fluorescence microscopy) | endo/lysosomal trapping after internalization (A549 cells; A549, LysoTracker Red, 1.5 or 24 h incubation) | cytotoxicity (MTT) (A549) | cytotoxicity (MTT) (HEK-293) | cytotoxicity (MTT) (HeLa) | cytotoxicity (MTT) (MDA-MB-231) | Kd (SRPK1ΔNS3) [µM]
1 | CC(=O)N[C@@H](CCCNC(=N)N)C(=O)N[C@@H](CCC(=O)O)C(=O)N[C@@H](CCCNC(=N)N)C(=O)N[C@@H](C)C(=O)N[C@@H](CCCNC(=N)N)C(=O)N[C@H](C(=O)N[C@@H](CCCNC(=N)N)C(=O)N[C@@H](CCCNC(=N)N)C(=O)N[C@@H](CNC(=O)c1ccc(S(=O)(=O)F)cc1)C(=O)N[C@@H](CCCNC(=N)N)C(=O)N[C@@H](C)C(=O)N[C@@H](CCCNC(=N)N)C(=O)N[C@H](C(=O)N[C@@H](CCCNC(=N)N)C(=O)N[C@@H](CCC(=O)O)C(=O)N[C@@H](CCCNC(=N)N)C(=O)N[C@@H](C)C(=O)N[C@@H](CCCNC(=N)N)C(=O)N[C@H](C(=O)N[C@@H](CCCNC(=N)N)C(N)=O)[C@@H](C)O)[C@@H](C)O)[C@@H](C)O [C-DBS] (Ac-RERARTRR[Dap](Benzoyl(4-SO2F))RARTRERARTR-NH2) | readily internalized by the A549 cells | not trapped in endolysosomal compartments after internalization | no cytotoxicity | no cytotoxicity | no cytotoxicity | no cytotoxicity | –
2 | RERARTRRE^9RARTRERARTR [DBS1] | – | – | – | – | – | – | 3.2 ± 1.5
